Where two headings read alike, the source gives them in different places.
What was measured:
[1] = Blood concentration in the guinea pig cardiotoxicity model; format: in vivo; conditions: male, whole blood, intravenous, guinea pigs, 0.01 mg/kg infusion for 10 minutes
Method: (§1) In this model, the guinea pigs used were highly responsive to an S1P1 receptor, and further the model was capable of reliable detection of S1P1 receptor-dependent cardiotoxicity under anesthesia. An electrocardiograph and a pacing device were attached to the male guinea pigs whose breathings were artificially controlled under anesthesia, and the drugs were administered.
In addition, the blood concentrations of BAF312 and the compound B when the administrations were completed were respectively 17 nM and 91 nM. The blood concentrations after 1 hour were respectively <4 nM and 27 nM.

[2] = molecular target: T1, S1P1 receptor coupled to Gαi3 (Homo sapiens, UniProt P21453); test: Gα subtype-specific S1P1 receptor agonist activity (BRET, NPL 7), HEK 293T cells co-expressing S1P1 receptor, Gαi3, Gγ2 and Gβ1; format: cell-based; conditions: Gαi3 expressed
T1 construct: expressed in transfected cells; host or cells: HEK 293T cells
T1 sequence (P21453 whole entry): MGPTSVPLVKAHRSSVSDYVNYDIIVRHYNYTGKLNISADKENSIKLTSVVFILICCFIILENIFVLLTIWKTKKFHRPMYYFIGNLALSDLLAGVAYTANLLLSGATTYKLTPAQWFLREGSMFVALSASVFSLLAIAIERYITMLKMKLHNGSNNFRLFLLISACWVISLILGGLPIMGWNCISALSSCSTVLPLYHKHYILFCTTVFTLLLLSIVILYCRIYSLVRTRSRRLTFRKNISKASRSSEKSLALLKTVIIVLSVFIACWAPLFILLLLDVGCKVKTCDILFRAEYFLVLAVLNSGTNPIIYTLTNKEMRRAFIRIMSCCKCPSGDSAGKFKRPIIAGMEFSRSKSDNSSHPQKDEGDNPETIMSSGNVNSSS
T1 sequence (P08754 2-354 partner limits assumed): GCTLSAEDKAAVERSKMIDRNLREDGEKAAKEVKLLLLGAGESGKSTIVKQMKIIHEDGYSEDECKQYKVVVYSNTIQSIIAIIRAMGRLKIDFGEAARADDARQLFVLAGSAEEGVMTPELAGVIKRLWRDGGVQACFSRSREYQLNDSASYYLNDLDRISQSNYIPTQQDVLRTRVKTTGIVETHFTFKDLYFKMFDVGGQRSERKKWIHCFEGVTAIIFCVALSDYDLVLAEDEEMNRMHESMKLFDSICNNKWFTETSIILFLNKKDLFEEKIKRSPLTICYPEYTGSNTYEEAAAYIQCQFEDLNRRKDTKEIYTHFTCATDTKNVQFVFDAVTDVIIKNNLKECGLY
T1 sequence (P62873 2-340 partner limits assumed): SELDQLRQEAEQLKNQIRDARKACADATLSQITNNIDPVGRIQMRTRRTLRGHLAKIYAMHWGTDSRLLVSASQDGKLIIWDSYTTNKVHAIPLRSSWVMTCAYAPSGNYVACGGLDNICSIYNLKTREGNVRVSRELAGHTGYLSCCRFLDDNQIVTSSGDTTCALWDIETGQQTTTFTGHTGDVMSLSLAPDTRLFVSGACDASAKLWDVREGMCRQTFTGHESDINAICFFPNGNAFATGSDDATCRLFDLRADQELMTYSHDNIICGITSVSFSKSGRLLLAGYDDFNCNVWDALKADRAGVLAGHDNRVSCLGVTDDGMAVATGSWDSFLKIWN
T1 sequence (P59768 2-68 partner limits assumed): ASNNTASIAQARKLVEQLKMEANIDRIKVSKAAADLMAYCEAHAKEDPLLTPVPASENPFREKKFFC
Text: (§2) In the present invention, an agonist activity specific to a Gαi subtype can be measured, for example, according to the method described in the present Example 1 (2) (the method described in NPL 7). To be more specific, by allowing cells to express an S1P1 receptor and a particular Gα subtype together with Gγ2 and Gβ1, an agonist activity can be measured on the basis of a difference in percentage between the Gα protein and the Gβγ protein caused by an S1P1 receptor agonist.
(§3) Next, the Gα protein subtype-specific S1P1 receptor agonist activities were evaluated according to the method described in NPL 7. Note that the expression conditions followed the section of “Supplementary Methods” in NPL 7, and the measurement conditions followed the section of “Bioluminescence resonance energy transfer measurement.”
(§4) First, HEK 293T cells were allowed to co-express an S1P1 receptor, a particular Gα subtype (Gαi1, Gαi2, or Gαi3), Gγ2, and Gβ1. Then, on the basis of a difference in percentage between the Gα protein and the Gβγ protein caused by the endogenous agonist S1P, the agonist activity was measured.

complete AV block = test: Cardiotoxicity evaluation: AV block in guinea pigs under anesthesia; format: in vivo, male guinea pigs; conditions: anesthetized guinea pigs, 0.01 mg/kg by infusion for 10 minutes
Method: as §1

[3] = molecular target: T2, S1P1 receptor coupled to Gαi2 (Homo sapiens, UniProt P21453); test: Gα subtype-specific S1P1 receptor agonist activity (BRET, NPL 7), HEK 293T cells co-expressing S1P1 receptor, Gαi2, Gγ2 and Gβ1; format: cell-based; conditions: Gαi2 expressed
T2 construct: expressed in transfected cells; host or cells: HEK 293T cells
T2 sequence (P21453 whole entry): as the sequence (P21453 whole entry) above
T2 sequence (P04899 2-355 partner limits assumed): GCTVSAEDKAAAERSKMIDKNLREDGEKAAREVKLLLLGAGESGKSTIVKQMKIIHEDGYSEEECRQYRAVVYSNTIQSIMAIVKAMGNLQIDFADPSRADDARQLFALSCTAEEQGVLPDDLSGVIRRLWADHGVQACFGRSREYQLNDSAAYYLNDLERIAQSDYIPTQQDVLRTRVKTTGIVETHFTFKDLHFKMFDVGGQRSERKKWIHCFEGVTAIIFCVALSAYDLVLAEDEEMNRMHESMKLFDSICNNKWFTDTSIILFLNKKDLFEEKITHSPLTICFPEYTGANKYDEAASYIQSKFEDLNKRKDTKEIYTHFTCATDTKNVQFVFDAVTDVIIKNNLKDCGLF
T2 sequence (P62873 2-340 partner limits assumed): as the sequence (P62873 2-340 partner limits assumed) above
T2 sequence (P59768 2-68 partner limits assumed): as the sequence (P59768 2-68 partner limits assumed) above
Text: as §2, §3, §4

[4] = molecular target: T3, S1P1 receptor coupled to Gαi1 (Homo sapiens, UniProt P21453); test: Gα subtype-specific S1P1 receptor agonist activity (BRET, NPL 7), HEK 293T cells co-expressing S1P1 receptor, Gαi1, Gγ2 and Gβ1; format: cell-based; conditions: Gαi1 expressed
T3 construct: expressed in transfected cells; host or cells: HEK 293T cells
T3 sequence (P21453 whole entry): as the sequence (P21453 whole entry) above
T3 sequence (P63096 2-354 partner limits assumed): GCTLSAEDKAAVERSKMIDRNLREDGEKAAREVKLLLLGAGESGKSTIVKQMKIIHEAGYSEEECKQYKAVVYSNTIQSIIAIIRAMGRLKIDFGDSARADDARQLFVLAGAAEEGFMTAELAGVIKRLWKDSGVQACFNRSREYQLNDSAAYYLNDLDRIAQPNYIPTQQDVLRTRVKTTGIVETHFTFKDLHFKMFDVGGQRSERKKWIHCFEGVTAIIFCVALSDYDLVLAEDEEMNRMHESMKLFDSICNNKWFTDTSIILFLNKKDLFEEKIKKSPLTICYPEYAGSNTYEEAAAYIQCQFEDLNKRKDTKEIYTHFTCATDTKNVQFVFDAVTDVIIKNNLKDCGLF
T3 sequence (P62873 2-340 partner limits assumed): as the sequence (P62873 2-340 partner limits assumed) above
T3 sequence (P59768 2-68 partner limits assumed): as the sequence (P59768 2-68 partner limits assumed) above
Text: as §2, §3, §4

S1P1 receptor = molecular target: T4, S1P1 receptor (Homo sapiens, UniProt P21453); test: General S1P1 receptor agonist activity, CHO cells expressing S1P1 receptor (method of Experimental Example 1 of PTL 1); format: cell-based; conditions: method of PTL 1
T4 construct: expressed in transfected cells; host or cells: CHO cells
T4 sequence (P21453 whole entry): as the sequence (P21453 whole entry) above
Text: As a general method for evaluating an S1P1 receptor agonist activity, there has been known a method which uses CHO cells expressing a S1P1 receptor, and the like to measure an agonist activity on the basis of binding to the receptor and a signal transduction activity through the binding (PTL 1).

[5] = system: number of lymphocytic cells in blood; test: Efficacy evaluation: number of lymphocytic cells in blood after oral administration; format: in vivo; conditions: male SD rats; for ED50: Rattus norvegicus
Method: BAF312 or the compound B was orally administered to male SD rats at different doses. After 3, 6, and 24 hours, and the number of lymphocytic cells in blood was counted using a blood cell counter.

S1P receptor = conditions: reported generally, varies with evaluation method; read-out: 50% activation concentration (EC50 value) as an agonist activity against an S1P receptor; cited from earlier work

| EC50 [2] | EC50 [3] | EC50 [4] | EC50 (S1P1 receptor) | Compound | concentration at 1 h ([1]; after 1 hour) | concentration at 10 min ([1]; end of administration, read-out: blood concentration when the administration was completed) | expression of complete AV block (cases) (complete AV block; four cases) | continuation of complete AV block (complete AV block; until 1 hour) | ED50 ([5]; 6 hours, read-out: dose for suppressing the number of lymphocytic cells by 50% (ED50) after 6 hours) | ED50 ([5]; 24 hours, read-out: dose for suppressing the number of lymphocytic cells by 50% (ED50) after 24 hours) | effective blood concentration after 24 hours ([5]; 24 hours, calculated) | EC50 (S1P receptor) |
| --- | --- | --- | --- | --- | --- | --- | --- | --- | --- | --- | --- | --- |
| 27 nM | 81 nM | 122 nM | 3 nM | CCc1cc(/C(C)=N/OCc2ccc(C3CCCCC3)c(C(F)(F)F)c2)ccc1CN1CC(C(=O)O)C1 [BAF312, Siponimod] | < 4 nM | 17 nM | four out of four cases | continued in all the cases until 1 hour elapsed | 0.1 mg/kg | > 1 mg/kg | > 208 nM |  |
| 8.4 nM | 14.6 nM | 261 nM | 6.4 nM | CCCCCCCCCCCCC/C=C/[C@@H](O)[C@@H](N)COP(=O)(O)O [Compound S1P, sphingosine-1-phosphate] |  |  |  |  |  |  |  | ~10 nM |

Reference: patent US9885703B2, “Evaluation method and screening method for sphingosine-1-phosphate 1 (S1P1) receptor agonists” (MEIJI SEIKA PHARMA CO., LTD., priority 2013, dated 2018)
